Source: patent US20250154228A1, “HIGH-TRANSDERMAL-ABSORPTION PEPTIDE AND RECOMBINANT COLLAGEN CONSTRUCTED BY MEANS OF REPETITIONS OF PEPTIDE” (XI'AN GIANT BIOGENE TECHNOLOGY CO., LTD, priority 2022, published 2025)
Ends that are not written are not given here.

Test: 24 h transdermal penetration through mouse skin in vitro, single-chamber diffusion cell, BCA determination
Format: in vitro ADME, Kunming mice
Details: collagen peptides, 5 mg/ml in 0.9% NaCl, diffusion area 2.0 cm^2, 37.5° C., receiving solution after 24 h, BCA kit
Method: 10 Kunming mice of 20 to 22 g with half male and half […] were used in the experiment. After the mice were killed, the hairs on the abdomen were removed. Then the skin on the hair-removed area was peeled off, stripped of fat and grain, and rinsed repeatedly with distilled water. After being washed, the mouse skins were rinsed with normal saline, then treated with 10% glycerol, and stored at −20° C. for use (used up within 7 days).
Single-chamber diffusion cell: The effective diffusion area of the diffusion cell is 2.0 cm^2, the volume of the receiving cell is 14 ml, the length of the custom-made stirrer is 1.4 cm, and the receiving liquid is 0.9% NaCl solution.
The stored mouse skin was taken out, thawed, washed with normal saline, and sandwiched between the receiving chamber and the supplying chamber, with the medicated side facing the supplying chamber and the skin side facing the receiving chamber. The temperature of the water bath system was adjusted to 37.5° C., and the stirring speed was adjusted to 100 rpm/min. 0.9% NaCl solution pre-warmed at 37° C. was added to the receiving chamber and the air bubbles were exhausted. In order to reduce the interference, the inner surface of the mouse skin was firstly contacted with the receiving solution without medication and all the receiving solution was replaced. Then the 18 collagen peptides synthesized were prepared into 5 mg/ml solutions using 0.9% NaCl respectively, which were injected into the supplying chamber and firmly adhere to the mouse skin respectively. After 24 h, part of the receiving solution was absorbed with a syringe as the sample solution to determine the transdermal amount of collagen peptide.
The BCA kit method was used to determine the polypeptide content in the sample solution. […]

Row | Sequence | 24 h penetration amount
1 | GERGVQGPPGPAGPRGANGAP [compound 12] | 3103.23 µg
2 | GDLGAPGPSGARGERGFPGER [compound 11] | 2994.13 µg
3 | GERGAAGLPGPKGDRGDAGPK [compound 14] | 3745.15 µg
4 | GPQGIAGQRGVVGLPGQRGER [compound 15] | 3111.47 µg
5 | GSPGENGAPGQMGPRGLPGER [compound 3] | 3213.66 µg
6 | GPPGKNGDDGEAGKPGRPGER [compound 1] | 3041.21 µg
7 | GERGPPGPQGARGLPGTAGLP [compound 2] | 3697.14 µg
8 | GERGRPGAPGPAGARGNDGAT [compound 4] | 3124.48 µg
9 | GEQGVPGDLGAPGPSGARGER [compound 9] | 3341.78 µg

The remaining lines, values ahead:

Row | 24 h penetration amount | Sequence
10 | 3253.23 µg | GERGGPGSRGFPGADGVAGPK [compound 6]
11 | 3034.99 µg | GERGFPGLPGPSGEPGKQGPS [compound 16]
12 | 3389.09 µg | GVMGFPGPKGAAGEPGKAGER [compound 7]
13 | 2992.77 µg | GERGFPGERGVQGPPGPAGPR [compound 10]
14 | 4048.04 µg | GAPGAPGSQGAPGLQGMPGER [compound 13]
15 | 3113.64 µg | GERGVPGPPGAVGPAGKDGEA [compound 8]
16 | 3498.56 µg | GLPGPSGEPGKQGPSGASGER [compound 17]
17 | 3308.22 µg | GERGPPGPMGPPGLAGPPGES [compound 18]
18 | 3023.05 µg | GKRGARGEPGPTGLPGPPGER [compound 5]
